# Laboratory results published in patent publication US20120077957A1, “Lactam-Bridged Melanocortin Receptor-Specific Peptides” (PALATIN TECHNOLOGIES, INC., priority 2009, published 2012).
# Bridge positions count the residues as written; N and C are the ends. Square brackets hold non-standard residues; d marks the D form. Peptide text beside a SMILES is read from it. Orn = NCCC[C@H](N)C(=O)O
# How the values were obtained:
# [1] = biological target: T1, human MC4-R (Homo sapiens, UniProt P32245); assay: Competitive inhibition binding assay with [I125]-NDP-α-MSH or Eu-NDP-α-MSH, membranes of HEK-293 cells expressing recombinant hMC4-R; conditions: human MC4-R; averages of all comparable assays; read-out: Ki
# T1 construct: expressed in transfected cells; host or cells: HEK293 T-REx (tetracycline-regulated, Invitrogen); cell line from Palatin Technologies with license from the University of Michigan
# T1 sequence (P32245 whole entry): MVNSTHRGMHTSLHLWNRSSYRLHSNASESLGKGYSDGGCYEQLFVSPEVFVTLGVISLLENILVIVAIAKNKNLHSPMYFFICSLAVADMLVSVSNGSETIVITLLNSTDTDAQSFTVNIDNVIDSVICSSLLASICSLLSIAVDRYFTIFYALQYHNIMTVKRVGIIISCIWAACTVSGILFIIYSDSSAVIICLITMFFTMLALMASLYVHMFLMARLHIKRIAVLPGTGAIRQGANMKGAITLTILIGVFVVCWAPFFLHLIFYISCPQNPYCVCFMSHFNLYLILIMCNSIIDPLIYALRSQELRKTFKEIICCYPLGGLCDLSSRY
# Procedure: A competitive inhibition binding assay was performed using membrane homogenates prepared from HEK-293 cells that express recombinant hMC4-R, hMC3-R, or hMC5-R, and from B-16 mouse melanoma cells (containing endogenous MC1-R). In some instances, HEK-293 cells that express recombinant hMC1-R were employed. In the examples that follow, all MC3-R, MC4-R and MC5-R values are for human recombinant receptors. […] After incubation for 60 minutes at 37° C., the assay mixture was filtered and the membranes washed three times with ice-cold buffer. Filters were dried and counted in a gamma counter for bound radioactivity. […] Maximal specific binding (100%) was defined as the difference in radioactivity (cpm) bound to cell membranes in the absence and presence of 1 μM NDP-α-MSH. […] Ki values for test peptides of the present invention were determined using Graph-Pad Prism® curve-fitting software.
# Alternatively, a competitive inhibition binding assay was performed employing Eu-NDP-α-MSH (PerkinElmer Life Sciences catalog No. AD0225) with determination by time-resolved fluorometry (TRF) of the lanthanide chelate. […] After incubation for 90 minutes at 37° C., the reaction was stopped by filtration over AcroWell 96-well filter plates (Pall Life Sciences). The filter plates were washed 4 times with 200 μL of ice-cold phosphate-buffered saline. DELFIA Enhancement solution (PerkinElmer Life Sciences) was added to each well. […] Each assay was conducted in duplicate and mean values were utilized. Ki values were determined by curve-fitting with Graph-Pad Prism® software using a one-site fixed-slope competition binding model.
# [2] = biological target: T1, human MC4-R; assay: cAMP functional assay in HEK-293 T-REx cells expressing human MC4-R, induced with doxycycline 0.1 ng/mL (low density); format: cell-based; conditions: doxycycline 0.1 ng/mL, averages of all comparable assays; for Emax: HEK293-T-REx, maximal cAMP stimulation, NDP-α-MSH = 100%, read-out: Emax; for EC50: human MC4-R cAMP assay, read-out: Ec50
# Text: A HEK293 cell line transfected with human MC4-R (from Palatin Technologies, US, with license from the University of Michigan) was used. The human MC4-R was introduced to HEK293 by using the T-REx™ System, Invitrogen. The T-REx™ System employs a tetracycline-regulated mammalian expression system that uses regulatory elements from the E. coli Tn10-encoded tetracycline (Tet) resistance operon. By use of the T-REx™ System, expression of the gene of interest, the human MC4-R gene, is repressed in the absence of tetracycline or doxycycline and induced in the presence of tetracycline or doxycycline (see T-REx™ System Manual, published by Invitrogen).
# Cells were then counted and volume was adjusted to 5×10^4 cells per 200 μL.
# The cells were then dispensed into 96-well plates (BD 353916) in 198 μL (about 5×10^4) cells/well and incubated for 10 minutes at 37° C. The compound to be tested was diluted with DMSO to a final concentration of 1 mM. Serial dilution was prepared in polypropylene removable 12-well library tube strips (VWR cat #83009-682). 120 μL of the 1 mM compound stock was pipetted in the second column on the plate.
# 2 μL of the standard, [Nle^4, D-Phe^7]alpha-Melanocyte Stimulating Hormone (NDP-α-MSH), or compound was added to the 96-well plate using the Janus robotic system. All assay samples were run in duplicate (i.e. each sample was in two low dox and two high dox plates, respectively). The plates were gently shaken and incubated for 15 minutes at 37° C. The reaction was stopped by adding 15 μL of lysis buffer per well and the plates were shakened for 30 minutes at room temperature.
# Agonist stimulation of the MC4-R activates adenylate cyclase, which is an enzyme that catalyses the formation 3′,5′-cyclic adenosine monophosphate (cAMP) from adenosine triphosphate (ATP). […] Fluoresence ratios were then calculated as described in the CisBio HTRF kit, with GraphPad Prism software used to plot the change in fluorescence percent values versus cAMP concentration using the variable slope dose response curve and, based on calculated cAMP concentrations, to determine EC50 and Emax values. […]
SMILES,Ki [1],Emax [2],EC50 [2]
"CCCC[C@H](NC(C)=O)C(=O)N[C@H]1CCC(=O)NCCC[C@@H](C(N)=O)NC(=O)[C@H](Cc2c[nH]c3ccccc23)NC(=O)[C@H](CCCNC(=N)N)NC(=O)[C@@H](Cc2ccccc2)NC(=O)[C@H](Cc2c[nH]cn2)NC1=O [No. 2, Ac-Nle-cyclo(Glu-His-D-Phe-Arg-Trp-Orn)-NH2]",0.1 nM,93%,0.1 nM
"CC(=O)N[C@@H](CCCNC(=N)N)C(=O)N[C@H]1CCC(=O)NCCC[C@@H](C(=O)O)NC(=O)[C@H](Cc2c[nH]c3ccccc23)NC(=O)[C@H](CCCNC(=N)N)NC(=O)[C@@H](Cc2ccccc2)NC(=O)[C@H](COCc2ccccc2)NC1=O [No. 17, Ac-Arg-cyclo(Glu-Ser(Bzl)-D-Phe-Arg-Trp-Orn)-OH]",6 nM,55%,2 nM
"CCCC[C@H](NC(C)=O)C(=O)N[C@H]1CCCNC(=O)CC[C@@H](C(=O)O)NC(=O)[C@H](Cc2c[nH]c3ccccc23)NC(=O)[C@H](CCCNC(=N)N)NC(=O)[C@@H](Cc2ccccc2)NC(=O)[C@H](Cc2c[nH]cn2)NC1=O [No. 35, Ac-Nle-cyclo(Orn-His-D-Phe-Arg-Trp-Glu)-OH]",1 nM,97%,2 nM
CC(=O)N[C@@H](CCCNC(=N)N)C(=O)N[C@H]1CC(=O)NCCCC[C@@H](C(=O)O)NC(=O)[C@H](Cc2c[nH]c3ccccc23)NC(=O)[C@H](CCCNC(=N)N)NC(=O)[C@@H](Cc2ccccc2)NC(=O)[C@H](Cc2c[nH]cn2)NC1=O [reference compound],–,91%,4 nM
CC(=O)N[C@@H](CCCNC(=N)N)C(=O)N[C@H]1CC(=O)NCCCC[C@@H](C(N)=O)NC(=O)[C@H](Cc2c[nH]c3ccccc23)NC(=O)[C@H](CCCNC(=N)N)NC(=O)[C@@H](Cc2ccccc2)NC(=O)[C@H](Cc2c[nH]cn2)NC1=O [reference compound],–,83%,–
CC(=O)N[C@@H](CCCNC(=N)N)C(=O)N[C@H]1CC(=O)NCCCC[C@@H](C(=O)NC2CC2)NC(=O)[C@H](Cc2c[nH]c3ccccc23)NC(=O)[C@H](CCCNC(=N)N)NC(=O)[C@@H](Cc2ccccc2)NC(=O)[C@H](CCC(N)=O)NC1=O [reference compound],–,79%,9 nM
CC(=O)N[C@H](CCCNC(=N)N)C(=O)N[C@H]1CC(=O)NCCCC[C@@H](C(N)=O)NC(=O)[C@H](Cc2c[nH]c3ccccc23)NC(=O)[C@H](CCCNC(=N)N)NC(=O)[C@@H](Cc2ccccc2)NC(=O)[C@H](Cc2c[nH]cn2)NC1=O [reference compound],–,89%,–
CC(=O)N[C@H]1CC(=O)NCCCC[C@@H](C(N)=O)NC(=O)[C@H](Cc2c[nH]c3ccccc23)NC(=O)[C@H](CCCNC(=N)N)NC(=O)[C@@H](Cc2ccccc2)NC(=O)[C@H](CCC(N)=O)NC1=O [reference compound] (Ac-DQ[dF]RWK-NH2; lactam 1-6),–,35%,–
CC(=O)N[C@@H](CCCNC(=N)N)C(=O)N[C@H]1CC(=O)NCCCC[C@@H](C(=O)O)NC(=O)[C@H](Cc2c[nH]c3ccccc23)NC(=O)[C@H](CCCNC(=N)N)NC(=O)[C@@H](Cc2ccccc2)NC(=O)[C@H](CC(N)=O)NC1=O [reference compound] (Ac-RDN[dF]RWK-OH; lactam 2-7),–,73%,–

# Results, then the molecule that gave them:
Ki [1],Emax [2],EC50 [2],SMILES
1 nM,83%,0.2 nM,"CC(=O)N[C@@H](CCCNC(=N)N)C(=O)N[C@H]1CCC(=O)NCCC[C@@H](C(N)=O)NC(=O)[C@H](Cc2c[nH]c3ccccc23)NC(=O)[C@H](CCCNC(=N)N)NC(=O)[C@@H](Cc2ccccc2)NC(=O)[C@H](Cc2c[nH]cn2)NC1=O [No. 4, Ac-Arg-cyclo(Glu-His-D-Phe-Arg-Trp-Orn)-NH2] (Ac-REH[dF]RW[Orn]-NH2; lactam 2-7)"
4 nM,94%,0.3 nM,"CC(=O)N[C@@H](CCCNC(=N)N)C(=O)N[C@H]1CCC(=O)NCCC[C@@H](C(N)=O)NC(=O)[C@H](Cc2c[nH]c3ccccc23)NC(=O)[C@H](CCCNC(=N)N)NC(=O)[C@@H](Cc2ccccc2)NC(=O)[C@H](CCN)NC1=O [No. 6, Ac-Arg-cyclo(Glu-Dab-D-Phe-Arg-Trp-Orn)-NH2]"
9 nM,95%,0.4 nM,"CC(=O)N[C@@H](CCCNC(=N)N)C(=O)N[C@H]1CCC(=O)NCCC[C@@H](C(N)=O)NC(=O)[C@H](Cc2c[nH]c3ccccc23)NC(=O)[C@H](CCCNC(=N)N)NC(=O)[C@@H](Cc2ccccc2)NC(=O)[C@H](CCCN)NC1=O [No. 8, Ac-Arg-cyclo(GIu-Orn-D-Phe-Arg-Trp-Orn)-NH2]"
3 nM,96%,6 nM,"CC(=O)N[C@@H](CCCNC(=N)N)C(=O)N[C@H]1CCC(=O)NCCC[C@@H](C(N)=O)NC(=O)[C@H](Cc2c[nH]c3ccccc23)NC(=O)[C@H](CCCNC(=N)N)NC(=O)[C@@H](Cc2ccccc2)NC(=O)[C@H](CCC(N)=O)NC1=O [No. 12, Ac-Arg-cyclo(Glu-Gln-D-Phe-Arg-Trp-Orn)-NH2]"
8 nM,71%,5 nM,"CC(=O)N[C@@H](CCCNC(=N)N)C(=O)N[C@H]1CCC(=O)NCCC[C@@H](C(N)=O)NC(=O)[C@H](Cc2c[nH]c3ccccc23)NC(=O)[C@H](CCCNC(=N)N)NC(=O)[C@@H](Cc2ccccc2)NC(=O)[C@H](CCS(C)(=O)=O)NC1=O [No. 13, Ac-Arg-cyclo(Glu-Met(O2)-D-Phe-Arg-Trp-Orn)-NH2]"
6 nM,55%,8 nM,"CC(=O)N[C@@H](CCCNC(=N)N)C(=O)N[C@H]1CCC(=O)NCCC[C@@H](C(N)=O)NC(=O)[C@H](Cc2c[nH]c3ccccc23)NC(=O)[C@H](CCCNC(=N)N)NC(=O)[C@@H](Cc2ccccc2)NC(=O)[C@@H]2C[C@@H](N)CN2C1=O [No. 32, Ac-Arg-cyclo(Glu-Pro(4R-NH2)-D-Phe-Arg-Trp-Orn)-NH2]"
7 nM,90%,3 nM,"CC(=O)NCCC[C@@H]1NC(=O)[C@@H](NC(=O)[C@H](CCCNC(=N)N)NC(C)=O)CCC(=O)NCCC[C@@H](C(N)=O)NC(=O)[C@H](Cc2c[nH]c3ccccc23)NC(=O)[C@H](CCCNC(=N)N)NC(=O)[C@@H](Cc2ccccc2)NC1=O [No. 33, Ac-Arg-cyclo(Glu-Orn(Acetyl)-D-Phe-Arg-Trp-Orn)-NH2]"
6 nM,–,0.4 nM,"CC(=O)N[C@@H](CCCNC(=N)N)C(=O)N[C@H]1CCC(=O)NCCC[C@@H](C(N)=O)NC(=O)[C@H](Cc2c[nH]c3ccccc23)NC(=O)[C@H](CCCNC(=N)N)NC(=O)[C@@H](Cc2ccccc2)NC(=O)[C@H](CC(N)=O)NC1=O [No. 34, Ac-Arg-cyclo(Glu-Asn-D-Phe-Arg-Trp-Orn)-NH2]"
–,91%,–,CC(=O)N[C@@H](CCCNC(=N)N)C(=O)N[C@H]1CC(=O)NCCCC[C@@H](C(=O)O)NC(=O)[C@H](Cc2c[nH]c3ccccc23)NC(=O)[C@H](CCCNC(=N)N)NC(=O)[C@@H](Cc2ccccc2)NC(=O)[C@H](CCN)NC1=O [reference compound]
–,43%,–,CC(=O)N[C@@H](CCCNC(=N)N)C(=O)N[C@H]1CC(=O)NCCCC[C@@H](C(N)=O)NC(=O)[C@H](Cc2c[nH]c3ccccc23)NC(=O)[C@H](CCCNC(=N)N)NC(=O)[C@@H](Cc2ccccc2)NC(=O)[C@@H]2CCCN2C1=O [reference compound]
–,97%,8 nM,CC(=O)N[C@@H](CCCNC(=N)N)C(=O)N[C@H]1CC(=O)NCCCC[C@@H](C(N)=O)NC(=O)[C@H](Cc2c[nH]c3ccccc23)NC(=O)[C@H](CCCNC(=N)N)NC(=O)[C@@H](Cc2ccccc2)NC(=O)[C@H](CCCCN)NC1=O [reference compound] (Ac-RDK[dF]RWK-NH2; lactam 2-7)
